# Test system: carrageenan induced paw oedema
# Assay: Anti-inflammatory study, carrageenan induced paw oedema model
# Format: in vivo, Wistar rats
# Conditions: oral, fibres 50 mg/Kg, Diclofenac 10 mg/Kg
# Method: Anti-inflammatory study of turmeric dietary fibre was conducted in Wistar rats. Rats were divided into 5 groups and orally administered with study samples. • Group 1: consisted of control animals and were fed with vehicle (1% tween 80) • Group 2: animals which were given Diclofenac standard (10 mg Diclofenac/Kg body weight) • Group 3: Animals were given turmeric dietary fibre having 80% total dietary fibre (50 mg/Kg) • Group 4: Animals were given soluble dietary fibre from Guar beans (50 mg/Kg) • Group 5: Animals were given modified starch from tapioca (50 mg/Kg) Then after 30 mins, the treated rats were challenged with carrageenan (0.1 ml, 1% carrageenan suspension in 0.9% NaCl solution) by injecting to the animals in sub plantar region of the hind paw. Carrageenan is a chemical known to induce inflammation in rats. The paw volume was determined for all the animals at different time intervals (base line, 3 hr, 6 Hr) after carrageenan injection using digital plethysmometer and the percentage inhibition of inflammation was calculated using following formula: Percentage inhibition=(1−D/C)×100 • D-Represents the difference in paw volume from baseline in test/standard group. • C-Represents the difference in paw volume from baseline in the control group. A higher value of percentage inhibition indicated less paw volume in the animals as compared to control animals and more anti-inflammatory activity.
structure (smiles),measurement,setting,value
O=C(O)Cc1ccccc1Nc1c(Cl)cccc1Cl [Diclofenac],Average percentage inhibition of inflammation,average of 3 Hr and 6 Hr,39%
same,Percentage inhibition of inflammation 3 Hr,paw volume 3 hr after carrageenan,46%
same,Percentage inhibition of inflammation 6 Hr,paw volume 6 hr after carrageenan,32%

# — US12702149B2, “Resistant starch from natural sources and their preparation” (Arjuna Natural Private Limited, priority 2019, dated 2026)
